Reference: US8802674B2, “Aminopyrimidine derivatives as LRRK2 modulators” (Genentech, Inc., priority 2011, dated 2014)

Each compound was assayed against LRRK2 (Homo sapiens (Human), UniProt Q5S007, G2019S) (assay: In Vitro LRRK2 LabChip Assay). Details: Table 4.
Assay type: biochemical
Description: In Vitro LRRK2 LabChip Assay
This assay was used to determine a compound's potency in inhibiting activity of LRRK2 by determining, Kiapp, IC50, or percent inhibition values. In a polypropylene plate, LRRK2, fluorescently-labeled peptide substrate, ATP and test compound were incubated together. Using a LabChip 3000 (Caliper Life Sciences), after the reaction the substrate was separated by capillary electrophoresis into two populations: phosphorylated and unphosphorylated. The relative amounts of each were quantitated by fluorescence intensity. LRRK2 Ki was determined according to the equation: Y=V0*(1−((x+Ki*(1+S/Km)+Et)/(2*Et)−(((x+Ki*(1+S/Km)+Et)^2−(4*Et*x))^0.5)/(2*Et))). Ki values in Table 4 and elsewhere herein are shown in μM.
Assay conditions and materials used were as follows:
Compound Plate Preparation:
For serial dilutions, 34.6 μl DMSO was added to columns 3-24. For the assay controls, 37.5 μl DMSO was added to columns 1 and 2 of rows A and P. a,d and 50 μl 25 μM G-028831 (Staurosporine) was added to columns 1 and 2, row B. For the samples: to start at 100 μM, 37.5 μl DMSO was to columns 1 and 2, then 12.5 μl 10 mM compound; to start at 10 μM, 78 μl DMSO was added to columns 1 & 2, then 2 μl 10 mM compound; and to start at 1 μM, 25 μM compound (2 μl 10 mM cmpd+798 μl DMSO) was added to empty columns 1 and 2. A Precision instrument was used to perform 1:3.16 serial dilutions (“PLK_BM_serial_halflog”).
ATP was diluted to 282.1 μM in Complete Kinase Buffer (final concentration was 130 μM).
Total and Blank Preparation:
In Complete Reaction Buffer, substrate was diluted to 4 μM. Equal volumes of Complete Reaction Buffer and 4 μM substrate were combined to obtain the blank. Equal volumes of Complete Reaction Buffer and 4 μM substrate were combined and to the combined solution was added 2× final LRRK2 concentration.
To a 50 μl polypropylene plate, 5 μl/well buffer/substrate was added by hand to Blank wells. A Biomek FX was used to start the kinase reaction (“PLK SAR 23 ATP”). The following were added to the appropriate wells:
5 μl/well compound/ATP in Assay Plate;
5 μl/well kinase/substrate in Assay Plate;
The plate was incubated for 2 hours in the dark. Biomek FX was used to stop the kinase reaction (“PLK Stop”), and 10 μl/well Stop solution was added to the Assay Plate. Results were read on the LabChip 3000.
The LabChip 3000 was run using the job “LRRK2IC50” with the following job settings: […]

LRRK2, sequence (Q5S007 970-2527 G2019S limits assumed): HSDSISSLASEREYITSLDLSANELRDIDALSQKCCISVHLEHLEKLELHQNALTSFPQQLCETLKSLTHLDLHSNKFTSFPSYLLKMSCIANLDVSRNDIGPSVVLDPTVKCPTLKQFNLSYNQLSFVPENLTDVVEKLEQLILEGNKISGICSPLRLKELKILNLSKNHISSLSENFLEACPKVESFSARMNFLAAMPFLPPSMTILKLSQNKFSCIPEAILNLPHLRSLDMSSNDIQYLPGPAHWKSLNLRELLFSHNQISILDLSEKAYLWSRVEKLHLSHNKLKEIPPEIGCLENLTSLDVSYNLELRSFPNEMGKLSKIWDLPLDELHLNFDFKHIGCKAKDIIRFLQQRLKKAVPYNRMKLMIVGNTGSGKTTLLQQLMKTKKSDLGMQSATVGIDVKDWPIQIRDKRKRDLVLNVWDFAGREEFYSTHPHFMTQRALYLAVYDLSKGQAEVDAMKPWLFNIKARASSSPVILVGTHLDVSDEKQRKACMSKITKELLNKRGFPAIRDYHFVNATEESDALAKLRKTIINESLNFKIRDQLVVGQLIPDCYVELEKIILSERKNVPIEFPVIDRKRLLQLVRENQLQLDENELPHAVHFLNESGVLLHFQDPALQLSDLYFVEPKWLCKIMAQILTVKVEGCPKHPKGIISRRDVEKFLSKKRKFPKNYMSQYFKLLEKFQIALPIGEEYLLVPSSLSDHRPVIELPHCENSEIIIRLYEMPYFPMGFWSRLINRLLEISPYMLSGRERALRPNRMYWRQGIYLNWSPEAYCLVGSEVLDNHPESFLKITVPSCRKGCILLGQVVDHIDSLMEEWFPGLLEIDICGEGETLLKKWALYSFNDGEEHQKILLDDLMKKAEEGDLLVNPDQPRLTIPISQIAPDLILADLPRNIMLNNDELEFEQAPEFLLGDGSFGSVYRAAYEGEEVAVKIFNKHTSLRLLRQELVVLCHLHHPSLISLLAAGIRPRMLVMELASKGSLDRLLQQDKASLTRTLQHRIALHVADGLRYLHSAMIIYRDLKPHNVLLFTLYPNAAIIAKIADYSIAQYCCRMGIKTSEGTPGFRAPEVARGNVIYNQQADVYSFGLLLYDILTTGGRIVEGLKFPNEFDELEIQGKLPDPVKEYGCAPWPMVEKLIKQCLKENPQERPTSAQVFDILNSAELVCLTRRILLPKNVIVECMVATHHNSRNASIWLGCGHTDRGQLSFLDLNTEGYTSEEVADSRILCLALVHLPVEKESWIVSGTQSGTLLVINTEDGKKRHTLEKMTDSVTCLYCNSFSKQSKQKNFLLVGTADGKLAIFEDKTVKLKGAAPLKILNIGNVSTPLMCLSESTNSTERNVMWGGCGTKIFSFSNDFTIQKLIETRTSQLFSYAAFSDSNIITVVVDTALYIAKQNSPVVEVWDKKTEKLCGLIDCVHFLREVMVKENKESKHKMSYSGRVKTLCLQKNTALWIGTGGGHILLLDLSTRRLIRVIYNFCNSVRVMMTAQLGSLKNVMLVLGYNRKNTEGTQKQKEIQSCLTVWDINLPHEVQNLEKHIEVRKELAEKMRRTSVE

**Q.** How did the Ki turn out when `COCCNc1nc(Nc2ccc(C(=O)N3CCOCC3)cc2OC(C)C)ncc1Br` [Example 186, {4-[5-Bromo-4-(2-methoxy-ethylamino)-pyrimidin-2-ylamino]-3-isopropoxy-phenyl}-morpholin-4-yl-methanone] was run?
**A.** Its Ki is 13.5 nM.

**Q.** Which Ki does the source give for `CNc1nc(Nc2ccc(C(=O)N3CCOCC3)cc2OC(C)C)ncc1Cl` [Example 79, [4-(5-Chloro-4-methylamino-pyrimidin-2-ylamino)-3-isopropoxy-phenyl]-morpholin-4-yl-methanone] here?
**A.** The Ki was 15.6 nM.

**Q.** For `CCOc1cc(C(=O)N2CCOCC2)ccc1Nc1ncc(Cl)c(NC)n1` [Example 49, [4-(5-Chloro-4-methylamino-pyrimidin-2-ylamino)-3-ethoxy-phenyl]-morpholin-4-yl-methanone], which Ki is on record?
**A.** Its Ki is 4.3 nM.

**Q.** With `CCN(CC)C(=O)c1ccc(Nc2ncc(C#N)c(NC)n2)c(OC)c1` [Example 199, 4-(5-Cyano-4-methylamino-pyrimidin-2-ylamino)-N,N-diethyl-3-methoxy-benzamide] as the compound, how does the Ki read?
**A.** The Ki was 6.8 nM.

**Q.** How did the Ki turn out when `CNc1nc(Nc2ccc(C(=O)N3CCN(CC(F)(F)F)CC3)cc2OC)ncc1Br` [Example 75, [4-(5-Bromo-4-methylamino-pyrimidin-2-ylamino)-3-methoxy-phenyl]-[4-(2,2,2-trifluoro-ethyl)-piperazin-1-yl]-methanone] was run?
**A.** The Ki was 3.8 nM.

**Q.** Which Ki does the source give for `CNc1nc(Nc2ccc(C(=O)NC3CC3)cc2OC)ncc1Cl` [Example 5, 4-(5-Chloro-4-methylamino-pyrimidin-2-ylamino)-N-cyclopropyl-3-methoxy-benzamide] here?
**A.** The Ki was 2.4 nM.

**Q.** `COc1cc(C(=O)N2CC(N3CCOCC3)C2)ccc1Nc1ncc(Br)c(OC)n1` [Example 88, [4-(5-Bromo-4-methoxy-pyrimidin-2-ylamino)-3-methoxy-phenyl]-(3-morpholin-4-yl-azetidin-1-yl)-methanone] was tested. Which Ki did it give?
**A.** Its Ki is 5 nM.

**Q.** With `CNc1nc(Nc2cc(F)c(C(=O)N3C[C@@H](C)O[C@@H](C)C3)cc2OC)ncc1C(F)(F)F` [Example 249, ((2S,6R)-2,6-dimethylmorpholino) (2-fluoro-5-methoxy-4-(4-(methylamino)-5-(trifluoromethyl)pyrimidin-2-ylamino)phenyl) methanone] as the compound, how does the Ki read?
**A.** The Ki was 8 nM.

**Q.** How did the Ki turn out when `CNc1nc(Nc2ccc(C(=O)N3CCN(C4COC4)CC3)cc2OC)ncc1Br` [Example 78, [4-(5-Bromo-4-methylamino-pyrimidin-2-ylamino)-3-methoxy-phenyl]-(4-oxetan-3-yl-piperazin-1-yl)-methanone] was run?
**A.** Its Ki is 8 nM.

**Q.** With `CNc1nc(Nc2cc(OC)c(C(=O)N3CCOC(CO)C3)cc2Cl)ncc1Cl` (stereo not drawn) [Example 162, [5-Chloro-4-(5-chloro-4-methylamino-pyrimidin-2-ylamino)-2-methoxy-phenyl]-(2-hydroxymethyl-morpholin-4-yl)-methanone] as the compound, how does the Ki read?
**A.** Its Ki is 6.9 nM.

**Q.** How did the Ki turn out when `CCNc1nc(Nc2cc(F)c(C(=O)N3CCOCC3)cc2OC)ncc1Cl` [Example 87, [4-(5-Chloro-4-ethylamino-pyrimidin-2-ylamino)-2-fluoro-5-methoxy-phenyl]-morpholin-4-yl-methanone] was run?
**A.** The Ki was 2.5 nM.

**Q.** Which Ki does the source give for `COc1cc(C(=O)N2CCOCC2)ccc1Nc1ncc(Cl)c(NC2(C)CCC2)n1` [Example 91, {4-[5-Chloro-4-(1-methyl-cyclobutylamino)-pyrimidin-2-ylamino]-3-methoxy-phenyl}-morpholin-4-yl-methanone] here?
**A.** The Ki was 2.4 nM.

**Q.** For `CNc1nc(Nc2cc(OC)c(C(=O)NC3COC3)cc2Cl)ncc1C(F)(F)F` [Example 174, 5-Chloro-2-methoxy-4-(4-methylamino-5-trifluoromethyl-pyrimidin-2-ylamino)-N-oxetan-3-yl-benzamide], which Ki is on record?
**A.** The Ki was 4.1 nM.

**Q.** With `CNc1nc(Nc2ccc(C(=O)N3CCOCC3)cc2OC(C)C)ncc1C(F)(F)F` [Example 215, [3-Isopropoxy-4-(4-methylamino-5-trifluoromethyl-pyrimidin-2-ylamino)-phenyl]-morpholin-4-yl-methanone] as the compound, how does the Ki read?
**A.** Its Ki is 9.4 nM.

**Q.** Which Ki does the source give for `CNc1nc(Nc2cc(OC)c(C(=O)NC3CCN(C)CC3)cc2Cl)ncc1C(F)(F)F` [Example 173, 5-Chloro-2-methoxy-4-(4-methylamino-5-trifluoromethyl-pyrimidin-2-ylamino)-N-(1-methyl-piperidin-4-yl)-benzamide] here?
**A.** Its Ki is 1.5 nM.

**Q.** `CNc1nc(Nc2ccc(C(=O)N3CCOCC3)cc2OC)ncc1C(C)=O` [Example 183, l-{2-[2-Methoxy-4-(morpholine-4-carbonyl)-phenylamino]-4-methylamino-pyrimidin-5-yl}-ethanone] was tested. Which Ki did it give?
**A.** Its Ki is 68.2 nM.

**Q.** For `CCOc1cc(C(=O)N2CCOCC2)ccc1Nc1ncc(C(F)(F)F)c(NC)n1` [Example 216, [3-Ethoxy-4-(4-methylamino-5-trifluoromethyl-pyrimidin-2-ylamino)-phenyl]-morpholin-4-yl-methanone], which Ki is on record?
**A.** Its Ki is 4.2 nM.

**Q.** For `COc1cc(C(=O)N2CCOCC2)ccc1Nc1ncc(Cl)c(NC2CCC2)n1` [Example 81, [4-(5-Chloro-4-cyclobutylamino-pyrimidin-2-ylamino)-3-methoxy-phenyl]-morpholin-4-yl-methanone], which Ki is on record?
**A.** Its Ki is 1.5 nM.

**Q.** With `CCNc1nc(Nc2cc(OC)c(C(=O)NCCOC)cc2Cl)ncc1C(F)(F)F` [Example 149, 5-Chloro-4-(4-ethylamino-5-trifluoromethyl-pyrimidin-2-ylamino)-2-methoxy-N-(2-methoxy-ethyl)-benzamide] as the compound, how does the Ki read?
**A.** The Ki was 9.3 nM.

**Q.** How did the Ki turn out when `CNc1nc(Nc2cc(F)c(C(=O)N3CCC(C#N)C3)cc2OC)ncc1C(F)(F)F` (stereo not drawn) [Example 178, l-[2-Fluoro-5-methoxy-4-(4-methylamino-5-trifluoromethyl-pyrimidin-2-ylamino)-benzoyl]-pyrrolidine-3-carbonitrile] was run?
**A.** Its Ki is 1.8 nM.

**Q.** With `CCNc1nc(Nc2ccc(C(=O)N3CCOCC3)cc2OC(C)C)ncc1C(F)(F)F` [Example 252, (4-(4-(ethylamino)-5-(trifluoromethyl)pyrimidin-2-ylamino)-3-isopropoxyphenyl) (morpholino) methanone] as the compound, how does the Ki read?
**A.** Its Ki is 4.5 nM.

**Q.** With `CNc1nc(Nc2cc(OC)c(C(=O)N(C)CCO)cc2Cl)ncc1Cl` [Example 163, 5-Chloro-4-(5-chloro-4-methylamino-pyrimidin-2-ylamino)-N-(2-hydroxy-ethyl)-2-methoxy-N-methyl-benzamide] as the compound, how does the Ki read?
**A.** The Ki was 7.8 nM.

**Q.** `CNc1nc(Nc2ccc(C(=O)N3CCC(F)(F)CC3)cc2OC)ncc1Cl` [Example 17, [4-(5-Chloro-4-methylamino-pyrimidin-2-ylamino)-3-methoxy-phenyl]-(4,4-difluoro-piperidin-1-yl)-methanone] was tested. Which Ki did it give?
**A.** The Ki was 3 nM.

**Q.** Which Ki does the source give for `COc1cc(C(=O)N2CCOCC2)ccc1Nc1ncc(Cl)c(N2CCCCC2)n1` [Example 254, (4-(5-chloro-4-(piperidin-1-yl)pyrimidin-2-ylamino)-3-methoxyphenyl) (morpholino) methanone] here?
**A.** Its Ki is 12.1 nM.

Same assay, conditions: Table 5

**Q.** With `CCNc1nc(Nc2cc(OC)c(C(=O)N3CCOCC3)cc2Cl)ncc1Cl` [Example 258, [5-Chloro-4-(5-chloro-4-ethylamino-pyrimidin-2-ylamino)-2-methoxy-phenyl]-morpholin-4-yl-methanone] as the compound, how does the Ki read?
**A.** Its Ki is 5 nM.

Same assay, conditions: Table 6

**Q.** `CNc1nc(Nc2cc(Cl)c(C(=O)N3CCOCC3)cc2OC)ncc1C(F)(F)F` [Example 292, [2-Chloro-5-methoxy-4-(4-methylamino-5-trifluoromethyl-pyrimidin-2-ylamino)-phenyl]-morpholin-4-yl-methanone] was tested. Which Ki did it give?
**A.** The Ki was 2 nM.

**Q.** For `CNc1nc(Nc2cc(F)c(C(=O)N3CCC[C@H]3COC)cc2OC)ncc1C(F)(F)F` [Example 305, [2-Fluoro-5-methoxy-4-(4-methylamino-5-trifluoromethyl-pyrimidin-2-ylamino)-phenyl]-((S)-2-methoxymethyl-pyrrolidin-1-yl)-methanone], which Ki is on record?
**A.** The Ki was 3 nM.

**Q.** `CNc1nc(Nc2ccc(C(=O)N3CCC(OC)CC3)cc2OC)ncc1C(F)(F)F` [Example 280, [3-Methoxy-4-(4-methylamino-5-trifluoromethyl-pyrimidin-2-ylamino)-phenyl]-(4-methoxy-piperidin-1-yl)-methanone] was tested. Which Ki did it give?
**A.** Its Ki is 1.6 nM.

**Q.** Which Ki does the source give for `CNc1nc(Nc2cc(OC)c(C(=O)N3CC(C)OC(C)C3)cc2Cl)ncc1C(F)(F)F` (stereo not drawn) [Example 267, [5-Chloro-2-methoxy-4-(4-methylamino-5-trifluoromethyl-pyrimidin-2-ylamino)-phenyl]-(2,6-dimethyl-morpholin-4-yl)-methanone] here?
**A.** Its Ki is 8 nM.

Same assay, conditions: Table 7

**Q.** `CNc1nc(Nc2cc(F)c(C(=O)N3C[C@@H](C)O[C@@H](C)C3)cc2OC)ncc1C#N` [Example 318, 2-[4-((2R,6S)-2,6-Dimethyl-morpholine-4-carbonyl)-5-fluoro-2-methoxy-phenylamino]-4-methylamino-pyrimidine-5-carbonitrile] was tested. Which Ki did it give?
**A.** Its Ki is 36.8 nM.
